Experiments:
Assay in all cases: Test D pre-/postemergence plant response
Format in all cases: in vivo
[1] = system: johnsongrass (Sorghum halepense); settings: Postemergence; for Plant response rating, Johnsongrass: scale 0 to 100, 0 no effect, 100 complete control
In short: (§1)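 Visual injury scoring (0–100) at 13 to 15 days in greenhouse. Preemergence sprays on seeded loam/sand; postemergence sprays on 1–4 leaf plants.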

[2] = system: velvetleaf (Abutilon theophrasti); settings: Postemergence
In short: as §1

[3] = system: galium (catchweed bedstraw, Galium aparine); settings: Postemergence; for Plant response rating, Galium: scale 0 to 100, 0 no effect, 100 complete control
In short: as §1

[4] = system: Italian ryegrass (Lolium multiflorum); settings: Postemergence
In short: as §1

[5] = system: pigweed (Amaranthus retroflexus); settings: Postemergence
In short: as §1

[6] = system: blackgrass (Alopecurus myosuroides); settings: Postemergence; for Plant response rating, Blackgrass: scale 0 to 100, 0 no effect, 100 complete control
In short: as §1

[7] = system: waterhemp (common waterhemp, Amaranthus rudis); settings: Postemergence
In short: as §1

[8] = system: large (Lg) crabgrass (Digitaria sanguinalis); settings: Postemergence; for Plant response rating, Crabgrass, Large: scale 0 to 100, 0 no effect, 100 complete control
In short: as §1

[9] = system: yellow nutsedge (Cyperus esculentus); settings: Postemergence
In short: as §1

[10] = system: morningglory (Ipomoea coccinea); settings: Postemergence
In short: as §1

[11] = system: winter wheat (Triticum aestivum); settings: Postemergence
In short: as §1

[12] = system: ragweed (common ragweed, Ambrosia elatior); settings: Postemergence
In short: as §1

[13] = system: lambsquarters (Chenopodium album); settings: Postemergence
In short: as §1

soybean (Glycine max) = settings: Postemergence
In short: as §1

[14] = system: barnyardgrass (Echinochloa crus-galli); settings: Postemergence; for Plant response rating, Barnyardgrass: scale 0 to 100, 0 no effect, 100 complete control
In short: as §1

[15] = system: giant foxtail (Setaria faberii); settings: Postemergence; for Plant response rating, Foxtail, Giant: scale 0 to 100, 0 no effect, 100 complete control
In short: as §1

corn (Zea mays) = settings: Postemergence; for Plant response rating, Corn: scale 0 to 100, 0 no effect, 100 complete control
In short: as §1

[16] = system: oilseed rape (Brassica napus); settings: Postemergence
In short: as §1

[17] = 31 g ai/ha, scale 0 to 100 (0 no effect, 100 complete control)
[18] = 62 g ai/ha, scale 0 to 100, 0 no effect, 100 complete control
[19] = 125 g ai/ha, scale 0 to 100, 0 no effect, 100 complete control

In the case of `Fc1cccc(Oc2ncc(Cl)cn2)c1-c1cc(C(F)(F)F)no1` [Compound 228], the “Plant response rating (scale 0 to 100), Johnsongrass” value ([1]; 16 g ai/ha) is reported as 10, the “Johnsongrass plant response rating” value [1, 17] is reported as 10 and the “Plant response rating, Johnsongrass” value ([1]; 62 g ai/ha) is reported as 25. The “Plant response rating, Johnsongrass” value ([1]; 125 g ai/ha) was 60, the “Plant response rating (scale 0 to 100), Velvetleaf” value ([2]; 16 g ai/ha) was 35 and the “Velvetleaf plant response rating” value [2, 17] was 40. The “Velvetleaf plant response rating” value [2, 18] was 65, the “Plant response rating, Velvetleaf” value [2, 19] was 80 and the “Plant response rating (scale 0 to 100), Galium” value ([3]; 16 g ai/ha) was 85. The “Galium plant response rating” value [3, 17] was 98, the “Plant response rating, Galium” value ([3]; 62 g ai/ha) was 98 and the “Plant response rating, Galium” value ([3]; 125 g ai/ha) was 100. The “Plant response rating (scale 0 to 100), Ryegrass, Italian” value ([4]; 16 g ai/ha) was 0, the “Ryegrass, Italian plant response rating” value [4, 17] was 5 and the “Ryegrass, Italian plant response rating” value [4, 18] was 15. For the same compound, the “Plant response rating, Ryegrass, Italian” value [4, 19] was 25, the “Plant response rating (scale 0 to 100), Pigweed” value ([5]; 16 g ai/ha) was 85 and the “Pigweed plant response rating” value [5, 17] was 95. The “Pigweed plant response rating” value [5, 18] was 95, the “Plant response rating, Pigweed” value [5, 19] was 98 and the “Plant response rating (scale 0 to 100), Blackgrass” value ([6]; 16 g ai/ha) was 15. For the same compound, the “Blackgrass plant response rating” value [6, 17] was 15, the “Plant response rating, Blackgrass” value ([6]; 62 g ai/ha) was 25 and the “Plant response rating, Blackgrass” value ([6]; 125 g ai/ha) was 35. The “Plant response rating (scale 0 to 100), Waterhemp” value ([7]; 16 g ai/ha) was 90, the “Waterhemp plant response rating” value [7, 17] was 95 and the “Waterhemp plant response rating” value [7, 18] was 95. For the same compound, the “Plant response rating, Waterhemp” value [7, 19] was 100, the “Plant response rating (scale 0 to 100), Crabgrass, Large” value ([8]; 16 g ai/ha) was 15 and the “Crabgrass, Large plant response rating” value [8, 17] was 20. The “Plant response rating, Crabgrass, Large” value ([8]; 62 g ai/ha) was 35, the “Plant response rating, Crabgrass, Large” value ([8]; 125 g ai/ha) was 45 and the “Plant response rating (scale 0 to 100), Nutsedge, Yellow” value ([9]; 16 g ai/ha) was 5. The “Nutsedge, Yellow plant response rating” value [9, 17] was 5, the “Nutsedge, Yellow plant response rating” value [9, 18] was 5 and the “Plant response rating, Nutsedge, Yellow” value [9, 19] was 10. The “Plant response rating (scale 0 to 100), Morningglory” value ([10]; 16 g ai/ha) was 65, the “Morningglory plant response rating” value [10, 17] was 65 and the “Morningglory plant response rating” value [10, 18] was 80. For the same compound, the “Plant response rating, Morningglory” value [10, 19] was 75, the “Plant response rating (scale 0 to 100), Wheat” value ([11]; 16 g ai/ha) was 0 and the “Wheat plant response rating” value [11, 17] was 5. For the same compound, the “Wheat plant response rating” value [11, 18] was 10, the “Plant response rating, Wheat” value [11, 19] was 10 and the “Plant response rating (scale 0 to 100), Ragweed” value ([12]; 16 g ai/ha) was 20. The “Ragweed plant response rating” value [12, 17] was 35, the “Ragweed plant response rating” value [12, 18] was 60 and the “Plant response rating, Ragweed” value [12, 19] was 60. The “Plant response rating (scale 0 to 100), Lambsquarters” value ([13]; 16 g ai/ha) was 85, the “Lambsquarters plant response rating” value [13, 17] was 85 and the “Lambsquarters plant response rating” value [13, 18] was 90. The “Plant response rating, Lambsquarters” value [13, 19] was 95, the “Plant response rating (scale 0 to 100), Soybean” value (soybean (Glycine max); 16 g ai/ha) was 60 and the “Soybean plant response rating” value (soybean (Glycine max); [17]) was 55. For the same compound, the “Soybean plant response rating” value (soybean (Glycine max); [18]) was 80, the “Plant response rating, Soybean” value (soybean (Glycine max); [19]) was 80 and the “Plant response rating (scale 0 to 100), Barnyardgrass” value ([14]; 16 g ai/ha) was 15. For the same compound, the “Barnyardgrass plant response rating” value [14, 17] was 20, the “Plant response rating, Barnyardgrass” value ([14]; 62 g ai/ha) was 20 and the “Plant response rating, Barnyardgrass” value ([14]; 125 g ai/ha) was 35. The “Plant response rating (scale 0 to 100), Foxtail, Giant” value ([15]; 16 g ai/ha) was 10, the “Foxtail, Giant plant response rating” value [15, 17] was 10 and the “Plant response rating, Foxtail, Giant” value ([15]; 62 g ai/ha) was 20. For the same compound, the “Plant response rating, Foxtail, Giant” value ([15]; 125 g ai/ha) was 40, the “Plant response rating (scale 0 to 100), Corn” value (corn (Zea mays); 16 g ai/ha) was 5 and the “Corn plant response rating” value (corn (Zea mays); [17]) was 10. The “Plant response rating, Corn” value (corn (Zea mays); 62 g ai/ha) was 10, the “Plant response rating, Corn” value (corn (Zea mays); 125 g ai/ha) was 10 and the “Plant response rating (scale 0 to 100), Oilseed Rape” value ([16]; 16 g ai/ha) was 65. The “Oilseed Rape plant response rating” value [16, 17] was 85, the “Oilseed Rape plant response rating” value [16, 18] was 80 and the “Plant response rating, Oilseed Rape” value [16, 19] was 98.

From US10131652B2, “Pyrimidinyloxy benzene derivatives as herbicides” (E. I. DU PONT DE NEMOURS AND COMPANY, priority 2014, dated 2018)
